Marks after values point to notes of the source that are not given here.
Key:
Format in all cases: in vivo, human
[1] = Body composition: body weight, FFM, fat mass, ASM (4-compartment model, DXA), AVF and thigh muscle (CT); details: for Mean Change in FFM from Baseline, 4-C / Mean Change in FFM from Baseline, DXA: n = 43
Description: This example presents the 6 and 12 mo (pivotal) body composition data in all subjects studied in a 2-yr crossover study. A total of 65 healthy older [60-81 yr; BMI 26.1±3 (19-35) kg/m^2] men and women on and off HRT (hormone replacement therapy) received MK-677 (⅔ of each group) or placebo in Yr 1. Total body fat mass, % fat, and fat-free mass (FFM) were determined every 6 mo over 2 yr using a 4-compartment (4-C) model, as well as dual energy x-ray absorptiometry (DXA, QDR 2000). 4-C model components: body weight and density (BodPod); total body water (D2O dilution); total bone mineral content (DXA). Data were analyzed by way of repeated measure ANCOVA with baseline response as the model covariate. P values and confidence limits were derived based on a Bonferroni two-sided experiment wise error rate 0.05; data shown are mean (upper and lower Bonferroni 95% CL).
Sixty-five healthy men and women (±HRT) ages 60-81 years were enrolled in a 2-year study of MK-677 (25 mg p.o. daily) or placebo. In addition to GH and IGF-I, the primary endpoints were fat-free mass (FFM), by 4-compartment model and DXA, and abdominal visceral fat (AVF) by CT. Secondary endpoints included isokinetic strength, function and quality of life (QoL); all endpoints were assessed at baseline and every 6 months, with frequent monitoring for adverse effects.
This NIH-funded study was approved by the General Clinical Research Center (GCRC) and the University of Virginia Institutional Review Boards. All subjects gave written informed consent. A two-year, double-blind, placebo-controlled modified crossover trial of once-daily administration of an oral GH secretogogue (MK-677, 25 mg) to healthy older adults was performed.
During the first year, subjects were randomized to MK-677 or placebo treatment. In each of 3 groups (23 men, 25 women on hormone replacement therapy (HRT) and 17 women not on HRT), ⅔ received MK-677 and ⅓ received placebo. At the end of year 1, the subjects who received placebo were switched to MK-677 treatment (N= 2/0 in year 2); subjects who received MK-677 for the first year were randomized to continue MK-677 (N=20) or to placebo (N=19).
Body Composition. The effects of treatment on FFM and total body fat were evaluated by two independent methods: a 4-compartment (4-C) model (5); and dual x-ray absorptiometry (DXA). All subjects were scanned on the same Hologic QDR-2000 in pencil beam mode as previously described (6); all scans were read by a single observer (J. L. C.). Total appendicular skeletal muscle (lean) mass (TASM) from DXA was measured as the sum of the lean soft-tissue masses for the arms and the legs as described by Heymsfield et al. (7). Total and abdominal visceral fat (AVF), and subcutaneous fat areas (cm^2), as well as thigh muscle were measured by computed tomography (CT) ((8) and all scans were read by a single observer (J. L. C.)
The two primary endpoints for this study are: 1) FFM, which is an important determinant of functional ability; and 2) AVF, which is the most important fat depot for cardiovascular risk. Based on a sample size of 60 subjects (40 randomized to MK-677 and 20 to placebo in year 1), this cross-over study was designed to have at least 90% power to detect a 4.1% or greater between-group difference in the change in percent FFM, with the same power to detect a 12.6% or greater between-group difference in the change in AVF (cm^2) after the initial 12-months of treatment. The sample size formula for two-sample Student's t-test was used to conduct the power analysis. The standard deviations used in the power calculations were 4.4% for percent FFM and 14.1% for AVF. Both power calculations reflect the power of a two-sided test with a type I error rate of 0.05.
The primary outcome data for the 6- and 12-month changes in FFM and AVF as well as for IGF-I and GH were analyzed via repeated measures ANCOVA. […]

[2] = Function tests and quality of life questionnaires; details: year 1
Description: Quality of Life Assessments. Subjects completed 4 questionnaires to assess quality of life and general well-being: the 20-item Short Form Health Survey (SF-20); Beck Depression Inventory (BDI); Pittsburgh Sleep Quality Index (PSQI); and the Body Cathexis Scale (BCS).
Function. Function tests included walking 30 meters as quickly as possible, walking as far as possible in 6 minutes, descending and ascending 4 flights of stairs and rising and sitting 5 times from an armless chair with an 18″ seat height.
Correction for Height and Gender. All strength and function measurements were analyzed per kg of skeletal muscle (ASM). Baseline arm ASM and leg ASM were used for shoulder and knee strength, respectively; baseline TASM (sum of arms and legs) was used for the function tests.
With regard to the quality of life data, a Factor Analysis of the different scales of the questionnaires was performed to create an overall well-being factor (16). Initially, study subjects were used as their own internal controls and assessed if there was change over time in overall well being. Using the hierarchical linear modeling (HLM), a growth curve analysis was conducted, testing within-person linear and curvilinear change in overall well being over time.

[3] = Monitoring for adverse effects, PSA, mammograms, pap smears, routine laboratory tests
Description: Healthy men and women 60 years and older were eligible to participate. A schematic of the study design and details of subject inclusion/exclusion criteria, screening, enrollment, and attrition are shown in FIG. 1. Volunteers were carefully screened by medical history and physical examination to rule out underlying disease and extensive laboratory testing was performed before and frequently throughout the study. Participants were asked to maintain their typical diet and exercise throughout the study and to report any illnesses, medical procedures or side effects. Annual mammograms and pap smears were performed in women and levels of prostate-specific antigen (PSA) were monitored in men.
In each of the 2 years, volunteers were seen monthly the first 3 months and every 3 months thereafter for a physical examination, documentation of medications and vital signs, routine laboratory tests and detailed questioning about possible side effects. Fasting blood glucose and hemoglobin Alc (HBAlc) were monitored for possible changes with MK-677 treatment, since increased blood glucose had been observed in previous studies (11;15).

[4] = 6 mo, 25 mg p.o. daily, mean (Bonferroni 95% CL)
[5] = 12 mo, 25 mg p.o. daily, methanesulfonate

For `CC(C)(N)C(=O)N[C@H](COCc1ccccc1)C(=O)N1CCC2(CC1)CN(S(C)(=O)=O)c1ccccc12.CS(=O)(=O)O` [MK-677, N-[1(R)-[(1,2-dihydro-1-methanesulfonylspiro[3H-indole-3,4′-piperidin]-1′-yl)carbonyl]-2-(phenylmethyloxy)ethyl]-2-amino-2-methylpropanamide methanesulfonate], the “increase in appendicular skeletal muscle compared to placebo” value ([1]; 25 mg orally daily, over the first year) was 1.6 kg, the “Total ASM change from baseline and vs. placebo” value ([1]; 6 and 12 months, DXA) was “significantly increased” and the “Estimated Difference in Change (MK-677 vs Placebo), Body Wt” value ([1]; 6 mo, 25 mg p.o. daily) was 2.3 (0.8-3.8)*** kg. For the same molecule, the “Estimated Difference in Change (MK-677 vs Placebo), FFM, 4-C” value ([1]; 6 mo, 25 mg p.o. daily) was 1.28 (0.21-2.36)* kg, the “Estimated Difference in Change (MK-677 vs Placebo), FFM, DXA” value ([1]; 6 mo, 25 mg p.o. daily) was 1.15 (0.28-2.02)** kg and the “Mean Change in FFM from Baseline, 4-C” value [1, 4] was 1.12 (0.48-1.75) kg. For the same molecule, the “Mean Change in FFM from Baseline, DXA” value [1, 4] was 0.98 (0.47-1.48) kg, the “Total body weight increase” value ([1]; 6 months, 25 mg p.o. daily, placebo 0.7 kg) was 3.1 kg and the “Estimated Difference in Change (MK-677 vs Placebo), Body Wt” value ([1]; 12 mo, 25 mg p.o. daily) was 1.9 (0.5-3.4)** kg. For the same molecule, the “Estimated Difference in Change (MK-677 vs Placebo), FFM, 4-C” value ([1]; 12 mo, 25 mg p.o. daily) was 1.64 (0.56-2.71)** kg, the “Estimated Difference in Change (MK-677 vs Placebo), FFM, DXA” value ([1]; 12 mo, 25 mg p.o. daily) was 1.54 (0.67-2.41)*** kg and the “Mean Change in FFM from Baseline, 4-C” value [1, 5] was 1.27 (0.64-1.90) kg. The “Mean Change in FFM from Baseline, DXA” value [1, 5] was 1.09 (0.58-1.59) kg, the “increase in thigh muscle area measured by CT vs. placebo” value ([1]; 12 months) was “did not reach statistical significance” and the “Total body weight increase” value ([1]; 12 months, 25 mg p.o. daily, placebo 0.8) was 2.7 kg. The “total body fat increase from baseline, DXA” value ([1]; 12 months, 25 mg p.o. daily, placebo 1.1 kg) was 1.8 kg, the “mean AVF increase from baseline, CT” value ([1]; 12 months, 25 mg p.o. daily, placebo 4.2 cm^2) was 8.4 cm^2 and the “Subcutaneous fat change from baseline” value ([1]; 12 months, CT) was “significantly increased from baseline”. The “leg ASM change vs. baseline” value ([1]; 12 months, DXA) was “increased significantly”, the “total body fat, difference between MK-677 and placebo groups” value ([1]; 12 months, DXA) was “no significant difference between groups” and the “increase in FFM of the first year, in subjects treated for 2 yr” value ([1]; Yr 2, n=17, descriptive data) was “maintained”. The “increase in FFM in subjects switched from MK-677 to placebo” value ([1]; yr 2, descriptive data) was “lost”, the “function or QoL” value [2] was “did not result in changes” and the serious side effects ([3]; daily treatment) was “without serious side effects”. For the same molecule, the “mammograms, pap smears, routine laboratory tests” value ([3]; during the 2 years of the study) was “no changes”, the “time for appetite to return to normal” value ([3]; in about one-half the subjects) was at most 3 months and the PSA levels ([3]; men) was “declined significantly”. For the same molecule, the “transient muscle pain, subjects reporting” value ([3]; placebo 2/22) was 14/43, the “mild, transient edema, subjects reporting” value ([3]; placebo 6/22) was 19/43 and the “increase in appetite, subjects reporting” value ([3]; placebo 8/22) was 29/43. The “Joint pain, subjects reporting” value ([3]; placebo 17/22) was 25/43.

— US7442706B2, “Methods for treating sarcopenia with a growth hormone secretagogue” (priority 2006, dated 2008)
